# Source: patent publication US20050159432A1, “Short form c-Maf transcription factor antagonists for treatment of glaucoma” (Alcon, Inc., priority 2003, published 2005)
# What was measured:
# [1] = test system: short-form c-Maf gene expression; test: QPCR analysis of short-form c-Maf gene expression in SGTM2697 glaucomatous trabecular meshwork cells; type: cell-based, Human
# Excerpt: (§1) Human trabecular meshwork (TM) cells were derived from donor eyes (Central Florida Lions Eye and Tissue Bank, Tampa, Fla.) and cultured as previously described (Steely, et al. (1992), Invest Ophthalmol Vis Sci 33(7): 2242-50; Wilson, et al. (1993), Curr Eye Res 12(9): 783-93; Clark, et al. (1994), Invest Ophthalmol Vis Sci 35(1): 281-94.; Dickerson, et al. (1998), Exp Eye Res 66(6): 731-8; Wang, et al. (2001), Mol Vis 7: 89-94). TM cells were derived from pools of four each of either normal or glaucoma cell lines. Total RNA was isolated from TM cells from each pool using TRIZOL® reagent according to the manufacturer's instructions (Invitrogen, Carlsbad, Calif.).
# First strand cDNA was generated from 1 μg of total RNA using random hexamers and TAQMAN® Reverse Transcription reagents according to the manufacturer's instructions (Applied Biosystems, Foster City, Calif.). The 100 μl reaction was subsequently diluted 20-fold to achieve an effective cDNA concentration of 0.5 ng/μl.
# Measurement of short form c-Maf gene expression was performed by quantitative real-time RT-PCR (QPCR) using an ABI PRISM® 7700 Sequence Detection System (Applied Biosystems) essentially as described Shepard, et al. (2001) Invest Ophthalmol Vis Sci 42(13): 3173-81. Primers for short form-specific c-Maf amplification (Genbank accession #AF055376) were designed using PRIMER EXPRESS® software (Applied Biosystems). Forward and reverse primer sequences were […], SEQ ID NO:1, (nucleotides 3773-3799) and […], SEQ ID NO:2, (nucleotides 3823-3847), and the minor groove binding probe sequence was CTGCAAGCATATAATACA, SEQ ID NO:3, (nucleotides 3801-3818). 6FAM was bound to the 5′ end of the minor groove binding probe and refers to the type of fluorophore attached to the TAQMAN® probe. Other choices for the fluorophore are the JOE™ Fluorophore (Applied Biosystems) or VIC™ fluorophore (Applied Biosystems). The “Minor Groove Binding Non-Fluorescent Quencher” was bound to the 3′ end of the probe and is used to quench the fluorescence from 6FAM. […] Quantification of relative cDNA concentrations was done using the relative standard curve method as described in PE Biosystems User Bulletin #2, ABI PRISM® 7700 Sequence Detection System, 2001 (Applied BioSystems). […]
# Short form c-Maf gene expression was analyzed using the Affymetrix U133A GENECHIP® analysis described in Example 2 of a pool of glaucomatous trabecular meshwork cells designated SGTM2697. […]
# The effect of small molecule inhibition on short-form c-Maf gene expression was analyzed by QPCR analysis as described in Example 2 in glaucomatous trabecular meshwork (Passage 6) cells designated SGTM2697. […]
# [2] = test system: short-form c-Maf gene expression; test: QPCR analysis of short-form c-Maf gene expression in TM70A trabecular meshwork cells; type: cell-based, Human; settings: 10^−7 M dexamethasone, c-Maf/18S normalized ratio, n=3
# Excerpt: as §1, with “Calif.). […]” for “Calif.).”
# Measurement of short form c-Maf gene expression was performed by quantitative real-time RT-PCR (QPCR) using an ABI PRISM® 7700 Sequence Detection System (Applied Biosystems) essentially as described Shepard, et al. (2001) Invest Ophthalmol Vis Sci 42(13): 3173-81. […] The “Minor Groove Binding Non-Fluorescent Quencher” was bound to the 3′ end of the probe and is used to quench the fluorescence from 6FAM. […] Quantification of relative cDNA concentrations was done using the relative standard curve method as described in PE Biosystems User Bulletin #2, ABI PRISM® 7700 Sequence Detection System, 2001 (Applied BioSystems). […]
molecule,measurement,setting,value
"CC(C)[C@H](CO)Nc1nc(Nc2cccc(Cl)c2)c2ncn(C(C)C)c2n1 [purvalanol A, 2-(1R-Isopropyl-2-hydroxyethylamino)-6-(3-chloroanilino)-9-isopropylpurine]",effect on TGFβ2-induced c-Maf expression,"[1]; SGTM2697 (Passage 6) cells, co-treatment with 5 ng/ml TGFβ2, 16 hours, n=6",completely abolished
same,basal c-Maf levels downregulated,"[1]; SGTM2697 (Passage 6) cells, without TGFβ2, 16 hours, n=6",2.6 fold
C[C@@H]1C[C@H]2[C@@H]3CCC4=CC(=O)C=C[C@]4(C)[C@@]3(F)[C@@H](O)C[C@]2(C)[C@@]1(O)C(=O)CO [dexamethasone],"short form c-Maf upregulated compared to control, day one",[2]; 1 day,2.1 fold
same,"short form c-Maf upregulated compared to control, day 14",[2]; 14 days,3.2 fold
"TGFβ2: transforming growth factor beta 2, used for induction of gene expression (protein, UniProt P61812 303-414, looked up) Transforming growth factor …: ALDAAYCFRNVQDNCCLRPLYIDFKRDLGWKWIHEPKGYNANFCAGACPYLWSSDTQHSRVLSLYNTINPEASASPCCVSQDLEPLTILYYIGKTPKIEQLSNMIVKSCKCS",short-form c-Maf upregulated by TGFβ2,"[1]; SGTM2697 (Passage 6) cells, 5 ng/ml TGFβ2, 16 hours, n=6",17 fold
same,short form c-Maf upregulated compared to control,"[1]; pooled SGTM2697 cells, 5 ng/ml TGFβ2, 16 hours, c-Maf/18S normalized ratio, n=3",16 fold
